Usually DC50 stands for the concentration giving 50% degradation.

A value given as a limit tells only on which side of the number the result lay.

For assay [1], the target named is T1, BRD9 (Homo sapiens, UniProt Q9H8M2).
T1 sequence (Q9H8M2 1-597): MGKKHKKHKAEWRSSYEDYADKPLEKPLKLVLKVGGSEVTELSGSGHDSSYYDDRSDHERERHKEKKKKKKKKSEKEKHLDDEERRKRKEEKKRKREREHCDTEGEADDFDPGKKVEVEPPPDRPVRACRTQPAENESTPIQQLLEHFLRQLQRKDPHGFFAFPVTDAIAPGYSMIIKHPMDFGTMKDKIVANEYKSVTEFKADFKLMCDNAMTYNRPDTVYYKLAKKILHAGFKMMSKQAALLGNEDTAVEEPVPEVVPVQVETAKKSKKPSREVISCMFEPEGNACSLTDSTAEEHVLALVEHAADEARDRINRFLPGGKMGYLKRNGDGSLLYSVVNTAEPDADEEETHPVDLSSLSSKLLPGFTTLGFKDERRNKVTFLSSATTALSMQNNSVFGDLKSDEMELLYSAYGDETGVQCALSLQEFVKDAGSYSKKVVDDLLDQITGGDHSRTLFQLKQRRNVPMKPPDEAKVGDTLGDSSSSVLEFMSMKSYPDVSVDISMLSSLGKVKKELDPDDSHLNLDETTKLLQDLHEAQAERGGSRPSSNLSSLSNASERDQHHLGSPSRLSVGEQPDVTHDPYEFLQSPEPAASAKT
Briefly: BRD9 degradation, HiBiT-BRD9 KI HEK293 (LgBiT) cells, NanoGlo Lytic Endpoint assay (Assay Protocol 1). It counts as cell-based. The settings on record: BRD9 degradation; for Dmax at 1 µM / Dmax: HEK293; for Dmax at 1 µM: 1 μM compound at 6 h of treatment, read-out: Assay 1 Dmax. Put shortly:
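HiBiT-tagged BRD9 knock-in HEK293 (LgBiT) cells exposed to compounds for 6 h at 37 °C, 5% CO2. Residual BRD9 measured by HiBiT lytic luminescence. % BRD9 remaining normalised to DMSO-treated cells (high) and no-cell wells (low).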

Assay [2] deals with T1, BRD9. Briefly: Degradation of BRD9 (IF), immunofluorescence in MV4-11 cells, 24 hours (Assay Protocol 2). It counts as cell-based. Further details: A suspension of MV4-11 cells (ATCC CRL-9591) was prepared; host or cells: MV4-11. Summed up:
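MV4-11 cells treated with compound 24 h at 37° C., then fixed, permeabilised and immunostained for BRD9 (anti-BRD9 E4Q3F, Alexa 647 secondary, Hoechst counterstain). High-content imaging quantified nuclear BRD9 signal; % BRD9 remaining normalised to DMSO and 100 nM CFT-8634 controls.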

[3] abbreviates: Table 2, Assay Protocol 1, 6 h of treatment, read-out: Assay 1 DC50.
[4] abbreviates: MV4-11, 24 h, Table 2, BRD9 degradation (IF), Assay Protocol 2, MV4-11 cells, read-out: Assay 2 DCmax.
Setting [5] is: Table 2, BRD9 degradation (IF), Assay Protocol 2, MV4-11 cells, read-out: Assay 2 DC50.
[6] abbreviates: Assay protocol 1, read-out: DC50.
[7] abbreviates: Assay protocol 1, read-out: Dmax.
Setting [8] is: Assay protocol 2, BRD9 degradation, read-out: DC50.
The mark [9] stands for this setting: MV4-11, Assay protocol 2, BRD9 degradation, read-out: Dmax.
The mark [10] stands for this setting: Table 4, determined according to Assay Protocol 1, read-out: Dmax^1.
The mark [11] stands for this setting: Table 4, determined according to Assay Protocol 1, read-out: DC50^1.
Where [12] appears, read: MV4-11, Table 4, BRD9 degradation, determined according to Assay Protocol 2, read-out: Dmax^2.
The mark [13] stands for this setting: Table 4, BRD9 degradation, determined according to Assay Protocol 2, read-out: DC50^2.

Take `COc1cc(-c2cn(C)c(=O)c3cnccc23)cc(OC)c1CN(C)CCN(C)Cc1cccc2c1CCN(C(=O)/C(C#N)=C/C(C)(C)C)C2C` (mixture of isomers) [Compound A32, (E/Z)-2-(5-(((2-((2,6-dimethoxy-4-(2-methyl-1-oxo-1,2-dihydro-2,7-naphthyridin-4-yl)benzyl)(methyl)amino)ethyl)(methyl)amino)methyl)-1-methyl-1,2,3,4-tetrahydroisoquinoline-2-carbonyl)-4,4-dimethylpent-2-enenitrile]: at BRD9 [1] (Table 2, Assay Protocol 1), the Dmax at 1 µM was 40 to 70%. Also, the DC50 on BRD9 [1] (setting [3]) is 10 to 25 nM; on BRD9 [2] (setting [5]), under 1.25 nM. On BRD9 [2] (setting [4]), the Dmax fell in the range of 40 to 70%.

Take `COc1cc(-c2cn(C)c(=O)c(C)c2C)cc(OC)c1CN1CCN(Cc2cccc3c2CCN(C(=O)/C(C#N)=C\C(C)(C)CF)C3C)C2(CC2)C1` (mixture of isomers) [Compound B125, (E/Z)-2-(5-((7-(2,6-dimethoxy-4-(1,4,5-trimethyl-6-oxo-1,6-dihydropyridin-3-yl)benzyl)-4,7-diazaspiro[2.5]octan-4-yl)methyl)-1-methyl-1,2,3,4-tetrahydroisoquinoline-2-carbonyl)-5-fluoro-4,4-dimethylpent-2-enenitrile]: the half-maximal degradation concentration (DC50) at BRD9 [1] (setting [6]) and at BRD9 [2] (setting [8]) was under 1.25 nM each time. The Dmax at BRD9 [1] (setting [7]) and on BRD9 [2] (setting [9]) was over 75% each time.

Regarding `COc1cc(-c2cn(C)c(=O)c(C)c2C)cc(OC)c1CN(C)C(=O)c1ccc2c(c1)CCN(C(=O)/C(C#N)=C/c1cccc(Br)n1)C2C` (mixture of isomers) [Compound B17, (E/Z)-2(3-(6-bromopyridin-2-yl)-2-cyanoacryloyl)-N-(2,6-dimethoxy-4-(1,4,5-trimethyl-6-oxo-1,6-dihydropyridin-3-yl)benzyl)-N,1-dimethyl-1,2,3,4-tetrahydroisoquinoline-6-carboxamide], the DC50 on BRD9 [1] (setting [6]) and at BRD9 [2] (setting [8]) was 25 to 1000 nM each time. Further, the Dmax at BRD9 [1] (setting [7]) and at BRD9 [2] (setting [9]) was 40 to 70% throughout.

As for `COc1cc(-c2cn(C)c(=O)c(C)c2C)cc(OC)c1CN1CCN(Cc2cccc3c2CCN(C(=O)/C(C#N)=C/c2cccc(C)n2)C3C)CC1` (mixture of isomers) [Compound B24, (E/Z)-2-(5-((4-(2,6-dimethoxy-4-(1,4,5-trimethyl-6-oxo-1,6-dihydropyridin-3-yl)benzyl)piperazin-1-yl)methyl)-1-methyl-1,2,3,4-tetrahydroisoquinoline-2-carbonyl)-3-(6-methylpyridin-2-yl)acrylonitrile], the DC50 at BRD9 [1] (setting [6]) is under 1.25 nM; on BRD9 [2] (setting [8]), 1.25 to 10 nM. Besides, the Dmax on BRD9 [1] (setting [7]) and on BRD9 [2] (setting [9]) was 40 to 70% each time.

Turning to `COc1cc(-c2cn(C)c(=O)c(C)c2C)cc(OC)c1CN1CCC(Oc2cccc(C3CCCN3C(=O)/C(C#N)=C/C(C)(C)C)c2)C1` (mixture of isomers) [Compound B54, (E/Z)-2-(2-(3-(((S)-1-(2,6-dimethoxy-4-(1,4,5-trimethyl-6-oxo-1,6-dihydropyridin-3-yl)benzyl)pyrrolidin-3-yl)oxy)phenyl)pyrrolidine-1-carbonyl)-4,4-dimethylpent-2-enenitrile], the DC50 on BRD9 [1] (setting [6]) and at BRD9 [2] (setting [8]) was under 1.25 nM throughout. The results for the Dmax on BRD9 [1] (setting [7]) and at BRD9 [2] (setting [9]) were over 75% and 70 to 75%, respectively.

Turning to `COc1cc(-c2cn(C)c(=O)c(C)c2C)cc(OC)c1CN1CCN(C(=O)[C@@H]2CN(C(=O)/C(C#N)=C/c3nccs3)C[C@H]2C2CCCCC2)CC1` [Compound B209], the Dmax is 30 to 50% at BRD9 [1] (setting [10]) and over 70% on BRD9 [2] (setting [12]). Moreover, the DC50 is over 200 nM at BRD9 [1] (setting [11]) and 25 to 200 nM at BRD9 [2] (setting [13]).

As for `COc1cc(-c2cn(C)c(=O)c(C)c2C)cc(OC)c1CN1CCN(Cc2cccc3c2CCN(C(=O)/C(C#N)=C/C2(C)COC2)C3C)CC1` (mixture of isomers) [Compound A51, (E/Z)-2-[5-[[4-[[2,6-dimethoxy-4-(1,4,5-trimethyl-6-oxo-3-pyridyl)phenyl]methyl]piperazin-1-yl]methyl]-1-methyl-3,4-dihydro-1H-isoquinoline-2-carbonyl]-3-(3-methyloxetan-3-yl)prop-2-enenitrile], on BRD9 [1] (Table 2, Assay Protocol 1), the Dmax at 1 µM is 40 to 70%. Also, the DC50 is 1.25 to 10 nM on BRD9 [1] (setting [3]) and under 1.25 nM on BRD9 [2] (setting [5]). Further, the Dmax at BRD9 [2] (setting [4]) fell in the range of 40 to 70%.

On to `COc1cc(-c2cn(C)c(=O)c3cnccc23)cc(OC)c1CN1CC2CC(C1)N2Cc1cccc2c1CCN(C(=O)/C(C#N)=C/C(C)(C)C)C2C` (mixture of isomers) [Compound A41, (E/Z)-2-(5-((3-(2,6-dimethoxy-4-(2-methyl-1-oxo-1,2-dihydro-2,7-naphthyridin-4-yl)benzyl)-3,6-diazabicyclo[3.1.1]heptan-6-yl)methyl)-1-methyl-1,2,3,4-tetrahydroisoquinoline-2-carbonyl)-4,4-dimethylpent-2-enenitrile], for which, at BRD9 [1] (Table 2, Assay Protocol 1), the Dmax at 1 µM lay within 70 to 75%. Further, the DC50 on BRD9 [1] (read-out: Assay 1 DC50, Table 2, Assay Protocol 1, 6 h of treatment) lay within 1.25 to 10 nM; on BRD9 [2] (setting [5]), 1.25 to 10 nM. The Dmax at BRD9 [2] (24 h, Table 2, BRD9 degradation (IF), Assay Protocol 2, MV4-11 cells, read-out: Assay 2 DCmax) fell in the range of 70 to 75%.

For the compound `COc1cc(-c2cn(C)c(=O)c(C)c2C)cc(OC)c1CN1CCN(C(=O)[C@@H]2CN(C(=O)/C(C#N)=C/C(C)(C)C)C[C@H]2C(C)C)CC1` [Compound B212], the Dmax on BRD9 [1] (setting [10]) and at BRD9 [2] (setting [12]) was 50 to 70% in each case. The DC50 at BRD9 [1] (setting [11]) and on BRD9 [2] (setting [13]) was 25 to 200 nM in each case.

Regarding `COc1cc(-c2cn(C)c(=O)c(C)c2C)cc(OC)c1CN1CCN(Cc2cccc3c2CCN(C(=O)/C(C#N)=C/C(C)(C)C)C3C)CC1` (mixture of isomers) [Compound A7, (E/Z)-2-(5-((4-(2,6-dimethoxy-4-(1,4,5-trimethyl-6-oxo-1,6-dihydropyridin-3-yl)benzyl)piperazin-1-yl)methyl)-1-methyl-1,2,3,4-tetrahydroisoquinoline-2-carbonyl)-4,4-dimethylpent-2-enenitrile], the Dmax at 1 µM at BRD9 [1] (Table 2, Assay Protocol 1) lay within 40 to 70%. For the same compound, the DC50 on BRD9 [1] (setting [3]) was 1.25 to 10 nM; on BRD9 [2] (setting [5]), 10 to 25 nM. Further, at BRD9 [2] (setting [4]), the Dmax is 40 to 70%.

Take `COc1cc(-c2cn(C)c(=O)c(C)c2C)cc(OC)c1CN1CC(Oc2ccc3c(c2)CCN(C(=O)/C(C#N)=C/c2cccc(Br)n2)C3C)C1` (mixture of isomers) [Compound B57, (E/Z)-3-(6-bromopyridin-2-yl)-2-(6-((1-(2,6-dimethoxy-4-(1,4,5-trimethyl-6-oxo-1,6-dihydropyridin-3-yl)benzyl)azetidin-3-yl)oxy)-1-methyl-1,2,3,4-tetrahydroisoquinoline-2-carbonyl)acrylonitrile]: the DC50 at BRD9 [1] (setting [6]) and on BRD9 [2] (setting [8]) was under 1.25 nM throughout. The Dmax at BRD9 [1] (setting [7]) and at BRD9 [2] (setting [9]) was 40 to 70% throughout.

In the case of `COc1cc(-c2cn(C)c(=O)c(C)c2C)cc(OC)c1CN1CCN(C(=O)[C@@H]2CN(C(=O)/C(C#N)=C/c3ccc(F)cc3)C[C@H]2C2CCCCC2)CC1` [Compound B211], the figures for the Dmax on BRD9 [1] (setting [10]) and on BRD9 [2] (setting [12]) were over 70% and 50 to 70%, respectively. Besides, the DC50 on BRD9 [1] (setting [11]) and on BRD9 [2] (setting [13]) was over 200 nM throughout.

Consider `COc1cc(-c2cn(C)c(=O)c(C)c2C)cc(OC)c1CN1CCN(Cc2cccc3c2CCN(C(=O)/C(C#N)=C/c2cc(C)on2)C3C)CC1` (mixture of isomers) [Compound B4, (E/Z)-2-(5-((4-(2,6-dimethoxy-4-(1,4,5-trimethyl-6-oxo-1,6-dihydropyridin-3-yl)benzyl)piperazin-1-yl)methyl)-1-methyl-1,2,3,4-tetrahydroisoquinoline-2-carbonyl)-3-(5-methylisoxazol-3-yl)acrylonitrile], for which the DC50 at BRD9 [1] (setting [6]) and on BRD9 [2] (setting [8]) was 1.25 to 10 nM in each case. For the same compound, the Dmax on BRD9 [1] (setting [7]) and at BRD9 [2] (setting [9]) was 40 to 70% in each case.

Source of the values: patent US20260092061A1, “COMPOUNDS FOR TARGETED PROTEIN DEGRADATION” (Amphista Therapeutics Limited, priority 2022, published 2026).
